Assay results reported in PMC6576746, “Rational discovery of dual-indication multi-target PDE/Kinase inhibitor for precision anti-cancer therapy using structural systems pharmacology” (PLoS Computational Biology, 2019).

Assays:
RET = RET (Homo sapiens, UniProt P07949); assay: biochemical; parameters: DiscoverX KinomeScan competition binding assay across human kinases; per cent of control at 10 and 100 uM; conditions: competition binding, % of control; read-out: Percent Control (100 uM Levosimendan)
RET, sequence (P07949 whole entry): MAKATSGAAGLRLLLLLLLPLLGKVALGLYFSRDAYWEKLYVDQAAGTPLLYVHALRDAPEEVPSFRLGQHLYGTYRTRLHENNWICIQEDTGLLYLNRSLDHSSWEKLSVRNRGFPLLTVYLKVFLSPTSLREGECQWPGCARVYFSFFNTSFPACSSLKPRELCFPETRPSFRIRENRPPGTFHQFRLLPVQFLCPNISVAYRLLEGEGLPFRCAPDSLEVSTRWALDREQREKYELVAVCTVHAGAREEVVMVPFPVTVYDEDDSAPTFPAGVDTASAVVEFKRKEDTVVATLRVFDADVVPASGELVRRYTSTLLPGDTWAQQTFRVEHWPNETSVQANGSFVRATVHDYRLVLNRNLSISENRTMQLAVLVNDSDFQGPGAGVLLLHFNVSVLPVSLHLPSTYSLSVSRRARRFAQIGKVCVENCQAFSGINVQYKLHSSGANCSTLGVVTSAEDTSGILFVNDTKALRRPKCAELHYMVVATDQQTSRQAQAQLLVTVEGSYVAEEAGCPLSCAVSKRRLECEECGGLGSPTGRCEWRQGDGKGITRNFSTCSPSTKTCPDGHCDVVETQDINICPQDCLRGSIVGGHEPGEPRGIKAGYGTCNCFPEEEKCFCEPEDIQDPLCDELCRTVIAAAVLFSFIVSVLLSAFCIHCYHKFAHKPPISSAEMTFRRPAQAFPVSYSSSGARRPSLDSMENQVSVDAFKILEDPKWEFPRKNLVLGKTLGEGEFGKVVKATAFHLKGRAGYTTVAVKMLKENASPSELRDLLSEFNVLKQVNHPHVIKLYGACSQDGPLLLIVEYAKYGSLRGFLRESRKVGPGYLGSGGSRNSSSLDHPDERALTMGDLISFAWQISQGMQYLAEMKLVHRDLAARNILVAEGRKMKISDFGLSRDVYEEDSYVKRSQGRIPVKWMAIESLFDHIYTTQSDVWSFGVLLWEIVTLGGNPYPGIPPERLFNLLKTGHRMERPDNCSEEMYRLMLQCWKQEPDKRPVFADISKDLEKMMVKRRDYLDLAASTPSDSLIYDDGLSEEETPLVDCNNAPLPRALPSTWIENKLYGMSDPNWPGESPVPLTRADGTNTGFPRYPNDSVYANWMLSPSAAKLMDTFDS
Procedure: (§1) To validate our computational predictions, we employed a competition binding assay to detect the binding of levosimendan to 425 human kinases as well as its dose-response curve to RIOK1. The proprietary KinomeScan assay was performed by DiscoverX (Fremont, California, USA). The tests were performed at 10 μM and 100 μM concentrations of levosimendan, respectively. Assay results were reported as %control, calculated as follows: %control=(TestCompoundSignal−PositiveControlSignal)/(NegativeControlSignal−PositiveControlSignal)×100 KinomeScan assay across 452 human kinases verified our computational prediction (S1 Table). RIOK1 is one of the strongest inhibited kinases by levosimendan. The percentage control of RIOK1 is 15.0 and 0.0 under the treatment of 10 μM and 100 μM of levosimendan, respectively. […] The percentage controls of five kinases: FLT3, MAP2K5, PIP5K1A, GAK, and KIT are less than 30.0 under the treatment of both 10 μM and 100 μM of levosimendan. Both FLT3 and KIT are tyrosine protein kinases. Their inhibitors have recently been approved for the treatment of Acute Myeloid Leukemia and other types of cancers, but a combination therapy is needed to overcome rapidly emerged drug resistance, thus improve patients’ drug responses. Other kinases inhibited by levosimendan belong to serine/threonine protein kinase family (RIOK1, RIOK3, GAK, and MAP2K5) and lipid kinase family (PIP5K1A). […] As a result, levosimendan may modulate different cancer pathways from those by the tyrosine protein kinase inhibitors, and it could be a novel lead compound for a new anti-cancer therapy to overcome drug resistance of existing drugs or to target different types of cancers through polypharmacology or drug combination.

EPHA6 = EPHA6 (Homo sapiens, UniProt Q9UF33); assay: biochemical; parameters: DiscoverX KinomeScan competition binding assay across human kinases; per cent of control at 10 and 100 uM; conditions: competition binding, % of control; read-out: Percent Control (100 uM Levosimendan)
Procedure: as §1

MST2 = target: T1, MST2 (Homo sapiens, UniProt Q13188); assay: biochemical; parameters: DiscoverX KinomeScan competition binding assay across human kinases; per cent of control at 10 and 100 uM; conditions: competition binding, % of control; read-out: Percent Control (100 uM Levosimendan)
T1 construct: gene STK3
T1 sequence (Q13188 whole entry): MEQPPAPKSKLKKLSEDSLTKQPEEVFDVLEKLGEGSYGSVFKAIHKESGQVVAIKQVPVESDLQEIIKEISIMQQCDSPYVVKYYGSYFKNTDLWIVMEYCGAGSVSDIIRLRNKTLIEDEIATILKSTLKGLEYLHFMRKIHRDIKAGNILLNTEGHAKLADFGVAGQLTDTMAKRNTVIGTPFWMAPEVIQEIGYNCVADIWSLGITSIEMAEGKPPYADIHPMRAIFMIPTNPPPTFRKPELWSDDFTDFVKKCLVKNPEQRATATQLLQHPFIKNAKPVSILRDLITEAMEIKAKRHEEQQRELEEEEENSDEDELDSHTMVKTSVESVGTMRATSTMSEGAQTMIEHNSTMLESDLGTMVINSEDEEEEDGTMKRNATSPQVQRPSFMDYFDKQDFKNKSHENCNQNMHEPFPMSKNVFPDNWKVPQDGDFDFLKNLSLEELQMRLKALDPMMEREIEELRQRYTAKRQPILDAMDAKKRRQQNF
Procedure: as §1

DDR2 = DDR2 (Homo sapiens, UniProt Q16832); assay: biochemical; parameters: DiscoverX KinomeScan competition binding assay across human kinases; per cent of control at 10 and 100 uM; conditions: competition binding, % of control; read-out: Percent Control (100 uM Levosimendan)
DDR2, sequence (Q16832 whole entry): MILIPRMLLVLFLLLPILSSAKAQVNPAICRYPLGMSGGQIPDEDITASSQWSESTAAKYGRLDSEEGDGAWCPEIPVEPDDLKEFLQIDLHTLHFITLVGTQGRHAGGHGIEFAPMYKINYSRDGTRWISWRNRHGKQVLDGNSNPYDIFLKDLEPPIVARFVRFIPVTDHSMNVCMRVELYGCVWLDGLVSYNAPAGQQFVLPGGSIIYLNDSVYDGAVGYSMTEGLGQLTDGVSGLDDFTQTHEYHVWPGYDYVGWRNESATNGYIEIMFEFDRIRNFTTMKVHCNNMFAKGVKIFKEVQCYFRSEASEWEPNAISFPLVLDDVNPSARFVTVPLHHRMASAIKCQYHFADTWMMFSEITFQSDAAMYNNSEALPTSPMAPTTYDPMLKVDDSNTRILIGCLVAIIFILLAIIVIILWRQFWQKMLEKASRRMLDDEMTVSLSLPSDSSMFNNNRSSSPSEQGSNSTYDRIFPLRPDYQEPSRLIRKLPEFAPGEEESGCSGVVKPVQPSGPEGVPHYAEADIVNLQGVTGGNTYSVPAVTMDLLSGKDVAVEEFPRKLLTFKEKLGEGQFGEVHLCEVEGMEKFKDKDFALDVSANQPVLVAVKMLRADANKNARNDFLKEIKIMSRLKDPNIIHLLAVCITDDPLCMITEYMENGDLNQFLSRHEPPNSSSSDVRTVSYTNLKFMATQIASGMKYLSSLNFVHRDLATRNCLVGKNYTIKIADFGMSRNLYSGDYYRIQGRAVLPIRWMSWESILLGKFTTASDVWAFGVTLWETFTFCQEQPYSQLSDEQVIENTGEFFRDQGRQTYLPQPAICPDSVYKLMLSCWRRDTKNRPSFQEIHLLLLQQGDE
Procedure: as §1

CSNK1G1 = CSNK1G1 (Homo sapiens, UniProt Q9HCP0); assay: biochemical; parameters: DiscoverX KinomeScan competition binding assay across human kinases; per cent of control at 10 and 100 uM; conditions: competition binding, % of control; read-out: Percent Control (100 uM Levosimendan)
Procedure: as §1

SIK2 = SIK2 (Homo sapiens, UniProt Q9H0K1); assay: biochemical; parameters: DiscoverX KinomeScan competition binding assay across human kinases; per cent of control at 10 and 100 uM; conditions: competition binding, % of control; read-out: Percent Control (100 uM Levosimendan)
Procedure: as §1

PKMYT1 = PKMYT1 (Homo sapiens, UniProt Q99640); assay: biochemical; parameters: DiscoverX KinomeScan competition binding assay across human kinases; per cent of control at 10 and 100 uM; conditions: competition binding, % of control; read-out: Percent Control (100 uM Levosimendan)
PKMYT1, sequence (Q99640 whole entry): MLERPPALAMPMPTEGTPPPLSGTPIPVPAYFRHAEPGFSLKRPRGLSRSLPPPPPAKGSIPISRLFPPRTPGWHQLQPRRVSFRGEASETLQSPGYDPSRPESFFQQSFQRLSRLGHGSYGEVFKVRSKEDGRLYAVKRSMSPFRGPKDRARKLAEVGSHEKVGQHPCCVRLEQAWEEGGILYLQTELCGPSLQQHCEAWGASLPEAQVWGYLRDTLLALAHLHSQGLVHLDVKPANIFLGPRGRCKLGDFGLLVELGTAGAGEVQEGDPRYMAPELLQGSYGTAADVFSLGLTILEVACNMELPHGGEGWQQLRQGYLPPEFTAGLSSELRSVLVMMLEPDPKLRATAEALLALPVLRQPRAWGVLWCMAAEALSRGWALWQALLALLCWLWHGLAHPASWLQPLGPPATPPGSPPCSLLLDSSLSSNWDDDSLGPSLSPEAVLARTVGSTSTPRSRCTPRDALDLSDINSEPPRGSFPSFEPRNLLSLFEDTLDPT
Procedure: as §1

CDK4-cyclinD1 = target: T2, CDK4-cyclinD1 (Homo sapiens, UniProt P11802); assay: biochemical; parameters: DiscoverX KinomeScan competition binding assay across human kinases; per cent of control at 10 and 100 uM; conditions: competition binding, % of control; read-out: Percent Control (100 uM Levosimendan)
T2 construct: cyclinD1
T2 sequence (P11802 whole entry): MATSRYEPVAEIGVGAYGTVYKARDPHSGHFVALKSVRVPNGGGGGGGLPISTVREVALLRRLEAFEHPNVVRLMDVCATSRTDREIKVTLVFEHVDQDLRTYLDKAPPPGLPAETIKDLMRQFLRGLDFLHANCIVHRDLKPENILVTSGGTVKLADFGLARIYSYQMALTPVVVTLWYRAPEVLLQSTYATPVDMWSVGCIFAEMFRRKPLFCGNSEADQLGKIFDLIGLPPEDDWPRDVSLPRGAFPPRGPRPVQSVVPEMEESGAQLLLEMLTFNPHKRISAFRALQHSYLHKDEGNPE
T2 sequence (P24385 whole entry partner): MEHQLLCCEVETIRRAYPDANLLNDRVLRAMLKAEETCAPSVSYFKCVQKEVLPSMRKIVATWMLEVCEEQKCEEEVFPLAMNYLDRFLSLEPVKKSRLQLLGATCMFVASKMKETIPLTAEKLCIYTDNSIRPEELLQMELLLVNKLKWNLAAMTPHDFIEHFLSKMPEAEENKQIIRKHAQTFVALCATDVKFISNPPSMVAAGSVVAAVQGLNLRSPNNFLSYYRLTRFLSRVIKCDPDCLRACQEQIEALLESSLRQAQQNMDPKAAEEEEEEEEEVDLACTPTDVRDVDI
Procedure: as §1

ROCK1 = ROCK1 (Homo sapiens, UniProt Q13464); assay: biochemical; parameters: DiscoverX KinomeScan competition binding assay across human kinases; per cent of control at 10 and 100 uM; conditions: competition binding, % of control; read-out: Percent Control (100 uM Levosimendan)
ROCK1, sequence (Q13464 whole entry): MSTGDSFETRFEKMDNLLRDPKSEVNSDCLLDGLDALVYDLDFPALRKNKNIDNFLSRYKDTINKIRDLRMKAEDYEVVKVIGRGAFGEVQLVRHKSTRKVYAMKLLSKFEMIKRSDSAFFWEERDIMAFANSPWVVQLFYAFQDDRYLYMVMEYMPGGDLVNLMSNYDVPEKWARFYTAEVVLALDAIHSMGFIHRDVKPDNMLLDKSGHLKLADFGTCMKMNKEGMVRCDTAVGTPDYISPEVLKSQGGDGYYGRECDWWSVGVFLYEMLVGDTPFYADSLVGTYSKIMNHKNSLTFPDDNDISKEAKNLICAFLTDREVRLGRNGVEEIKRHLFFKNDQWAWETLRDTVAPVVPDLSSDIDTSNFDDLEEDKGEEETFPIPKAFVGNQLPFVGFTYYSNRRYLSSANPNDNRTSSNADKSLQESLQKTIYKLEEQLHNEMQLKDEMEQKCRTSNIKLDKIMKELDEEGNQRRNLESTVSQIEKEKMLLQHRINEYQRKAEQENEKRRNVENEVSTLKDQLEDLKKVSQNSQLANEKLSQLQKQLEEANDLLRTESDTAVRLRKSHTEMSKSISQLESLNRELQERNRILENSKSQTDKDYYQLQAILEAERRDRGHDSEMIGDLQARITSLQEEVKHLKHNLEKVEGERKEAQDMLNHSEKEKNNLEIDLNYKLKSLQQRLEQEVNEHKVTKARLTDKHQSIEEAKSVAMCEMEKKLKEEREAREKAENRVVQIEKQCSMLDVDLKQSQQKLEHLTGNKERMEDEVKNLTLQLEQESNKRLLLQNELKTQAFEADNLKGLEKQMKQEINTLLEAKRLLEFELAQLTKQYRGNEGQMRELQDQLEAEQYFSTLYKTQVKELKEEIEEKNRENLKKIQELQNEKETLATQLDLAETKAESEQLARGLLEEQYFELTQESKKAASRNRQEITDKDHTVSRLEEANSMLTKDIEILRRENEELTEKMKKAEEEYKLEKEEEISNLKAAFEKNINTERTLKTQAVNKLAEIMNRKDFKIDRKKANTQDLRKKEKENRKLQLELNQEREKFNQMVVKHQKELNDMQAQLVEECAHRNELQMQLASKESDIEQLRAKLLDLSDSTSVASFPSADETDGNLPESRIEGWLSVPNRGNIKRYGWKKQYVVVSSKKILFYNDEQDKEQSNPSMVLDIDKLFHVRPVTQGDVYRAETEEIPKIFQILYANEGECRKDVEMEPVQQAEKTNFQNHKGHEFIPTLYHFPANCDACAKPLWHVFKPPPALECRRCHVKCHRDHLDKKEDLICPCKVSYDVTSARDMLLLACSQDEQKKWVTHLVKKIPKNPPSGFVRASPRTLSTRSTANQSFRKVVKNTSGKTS
Procedure: as §1

HPAF-II = assay: cells; parameters: species or system panel of human cancer cell lines; Eurofins OncoPanel proliferation; nuclei count by high-content fluorescence imaging, 10-point dose response; conditions: Homo sapiens, HPAF-II, 72 h, cell count, 3 days
Method in brief: (§2)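 Cells in RPMI 1640/10% FBS or special medium received compound the day after seeding, with a time-zero plate; 3-day incubation at 37°C, 5% CO2. Nuclei imaged by fluorescence microscopy; 10 half-log doses from 100 μM, 0.1% DMSO. EC50, IC50, GI50 and activity area (0–10) from curve fits.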

HuTu 80 = assay: cells; parameters: species or system panel of human cancer cell lines; Eurofins OncoPanel proliferation; nuclei count by high-content fluorescence imaging, 10-point dose response; conditions: Homo sapiens, HuTu80, 72 h, cell count, 3 days
Method in brief: as §2

SU-DHL-4 = assay: cells; parameters: species or system panel of human cancer cell lines; Eurofins OncoPanel proliferation; nuclei count by high-content fluorescence imaging, 10-point dose response; conditions: Homo sapiens, SU-DHL-4, 72 h, cell count, 3 days
Method in brief: as §2

Daoy = assay: cells; parameters: species or system panel of human cancer cell lines; Eurofins OncoPanel proliferation; nuclei count by high-content fluorescence imaging, 10-point dose response; conditions: Homo sapiens, Daoy, 72 h, cell count, 3 days
Method in brief: as §2

[1] = 50% of maximum possible response

- remaining binding at 100 µM (RET): 88%
- remaining binding at 100 µM (EPHA6): 98%
- remaining binding at 100 µM (MST2): 100%
- remaining binding at 100 µM (DDR2): 79%
- remaining binding at 100 µM (CSNK1G1): 78%
- remaining binding at 100 µM (SIK2): 65%
- remaining binding at 100 µM (PKMYT1): 57%
- remaining binding at 100 µM (CDK4-cyclinD1): 84%
- remaining binding at 100 µM (ROCK1): 90%
- IC50 (SU-DHL-4; [1]): 4.77 µM
- GI50 (SU-DHL-4; corrected for time zero): 3.31 µM
- EC50 (SU-DHL-4; curve inflection point): 0.944 µM
SMILES: C[C@@H]1CC(=O)NN=C1c1ccc(NN=C(C#N)C#N)cc1 [levosimendan]
- IC50 (HPAF-II; [1]): 65.8 µM
- GI50 (HPAF-II; corrected for time zero): 54 µM
- EC50 (HPAF-II; curve inflection point): 65.8 µM
- IC50 (HuTu 80; [1]): 16 µM
- GI50 (HuTu 80; corrected for time zero): 14.2 µM
- EC50 (HuTu 80; curve inflection point): 16 µM
- IC50 (Daoy; [1]): 16.7 µM
- GI50 (Daoy; corrected for time zero): 13 µM
- EC50 (Daoy; curve inflection point): 16.7 µM
